Data taken from patent publication US8232283B2, “Raf inhibitors” (Forma Therapeutics, Inc., priority 2008, dated 2012).

Key:
[1] = test system: HT-29 [B-Raf V600E mutant]; assay: Anti-proliferative activity, SRB assay, 72 hours; assay type: cell-based; conditions: Homo sapiens, read-out: CELLULAR IC50 [μM] HT-29 [B-Raf V600E mutant]
Description: We observed the surprising finding that compounds of the invention were useful in inhibiting proliferation of HT-29 tumor cells (see Table 3).
(§1) Cells were exposed to the test compounds at various concentrations appropriate to determine an IC50, for 72 hours, and cell proliferation was measured using the SRB assay according to Shekan et al (J Natl Cancer Inst (1990) 82, 1107-112) in order to estimate the IC50 values shown in Table 3.
(§2) Briefly, cells were plated in 96 well dishes 24 hours prior to compound addition at the densities specified in Table 11.1.
(§3) The assay was terminated with the addition of ice cold 10% TCA after growth medium has been removed and the plates were incubated over night at 4° C. The plates were then washed 5 times with water and 100 μl of a Sulforhodamine B solution ([…]) was added to each well. The plates were then incubated for 10 minutes at room temperature before removal of unbound dye by washing with 1% acetic acid. The bound dye was solubilized with 10 mM Trizma base and the absorbance read at OD520.
(§4) Inhibitory activity of the compounds was calculated as % inhibition of cell proliferation compared to cells treated with the solvent (DMSO).

[2] = test system: A-431 [B-Raf wildtype]; assay: Anti-proliferative activity, SRB assay, 72 hours; assay type: cell-based; conditions: Homo sapiens, read-out: CELLULAR IC50 [μM] A-431 [B-Raf wildtype]
Description: as §1, §2, §3, §4

[3] = target: T1, p38 (Homo sapiens, UniProt Q16539); assay: Biochemical inhibition, standard selectivity panel (Proteros); parameters: dose or concentration left out as unconfirmed
T1 construct: purchased Proteros biostructures GmbH (selectivity panel service)
T1 sequence (Q16539 whole entry): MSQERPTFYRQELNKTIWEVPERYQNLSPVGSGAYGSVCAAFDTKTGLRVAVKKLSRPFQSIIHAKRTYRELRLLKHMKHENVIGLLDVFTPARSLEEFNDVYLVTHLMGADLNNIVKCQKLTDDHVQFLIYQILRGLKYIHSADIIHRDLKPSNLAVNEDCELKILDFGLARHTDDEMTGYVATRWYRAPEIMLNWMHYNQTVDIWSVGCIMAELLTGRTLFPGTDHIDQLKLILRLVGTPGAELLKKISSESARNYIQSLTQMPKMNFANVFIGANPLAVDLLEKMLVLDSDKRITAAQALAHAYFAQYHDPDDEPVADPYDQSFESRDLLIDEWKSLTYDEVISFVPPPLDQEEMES
Description: (§5) For example, selected compound of the present invention were tested in a standard selectivity panel including c-Raf, p38, and 22 other kinases (Proteros biostructures GmbH, Martinsried/Munich, Germany), under conditions of non-disclosure, non-dissemination and non-use.
(§6) In brief, selected compounds of the present invention were tested […] in triplicates against c-Raf, p38 as well as against Ab1, Akt1, Aur A, c-Kit, c-Raf, Cdk1/CycB, Chk1, FGFR3, Flt3, Fyn, IGF1-R, INSR, Lyn, MAPK-ERK1, PAK-4, PKCalpha, Plk1, Ret, ROCK2, RSK 1, c-Src, TIE2, and VEGF-R2.

[4] = target: T2, C-Raf (Homo sapiens, UniProt P04049); assay: as above; parameters: dose or concentration left out as unconfirmed
T2 construct: purchased Proteros biostructures GmbH (selectivity panel service)
T2 sequence (P04049 whole entry): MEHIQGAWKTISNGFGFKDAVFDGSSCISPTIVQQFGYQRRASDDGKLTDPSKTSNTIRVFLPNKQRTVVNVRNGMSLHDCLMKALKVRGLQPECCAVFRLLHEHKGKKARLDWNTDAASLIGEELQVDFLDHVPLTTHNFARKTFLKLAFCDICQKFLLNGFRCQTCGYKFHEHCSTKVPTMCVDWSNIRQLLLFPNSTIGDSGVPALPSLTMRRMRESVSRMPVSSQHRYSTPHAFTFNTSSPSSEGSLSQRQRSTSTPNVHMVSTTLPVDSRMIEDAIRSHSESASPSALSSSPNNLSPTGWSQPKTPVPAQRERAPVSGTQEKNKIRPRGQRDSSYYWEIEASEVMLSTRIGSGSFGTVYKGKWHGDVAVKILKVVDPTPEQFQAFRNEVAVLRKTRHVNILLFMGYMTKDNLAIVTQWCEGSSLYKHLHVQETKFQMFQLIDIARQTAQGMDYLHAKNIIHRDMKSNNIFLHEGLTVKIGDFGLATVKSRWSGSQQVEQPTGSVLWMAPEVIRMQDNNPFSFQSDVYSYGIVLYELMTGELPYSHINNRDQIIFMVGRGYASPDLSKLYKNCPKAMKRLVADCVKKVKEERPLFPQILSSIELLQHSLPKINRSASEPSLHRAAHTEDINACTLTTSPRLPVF
Description: as §5, §6

IC50 [1] [µM]	IC50 [2] [µM]	inhibition [3] [%]	inhibition [4] [%]	SMILES
< 5	< 10	> 70	> 70	COn1c(=O)c(-c2cc(NC(=O)c3ccc(C(C)(C)C)cc3)ccc2Cl)cc2cnc(NCCN(C)C)nc21 [Compound 37, 4-tert-Butyl-N-{4-chloro-3-[2-(2-dimethylamino-ethylamino)-8-methoxy-7-oxo-7,8-dihydro-pyrido[2,3-d]pyrimidin-6-yl]-phenyl)-benzamide]
< 10	> 10	> 70	> 70	COc1ccc(NC(=O)Nc2ccc(Cl)c(-c3cc4cnc(NCCN(C)C)nc4n(OC)c3=O)c2)cc1Cl [Compound 4, 1-{4-Chloro-3-[2-(2-dimethylamino-ethylamino)-8-methoxy-7-oxo-7,8-dihydro-pyrido[2,3-d]pyrimidin-6-yl]-phenyl}-3-(3-chloro-4-methoxy-phenyl)-urea]
< 5	> 10	> 70	> 70	COn1c(=O)c(-c2cc(NC(=O)c3cccc(C(F)(F)F)c3)ccc2Cl)cc2cnc(NCCN(C)C)nc21 [Compound 24, N-{4-Chloro-3-[2-(2-dimethylamino-ethylamino)-8-methoxy-7-oxo-7,8-dihydro-pyrido[2,3-d]pynmidin-6-yl]-phenyl}-3-trifluoromethyl-benzamide]
< 5	< 5	> 70	> 70	COn1c(=O)c(-c2cc(NC(=O)Nc3ccc(C(C)(C)C)cc3)ccc2Cl)cc2cnc(NCCN(C)C)nc21 [Compound 44, 1-(4-tert-Butyl-phenyl)-3-{4-chloro-3-[2-(2-dimethylamino-ethylamino)-8-methoxy-7-oxo-7,8-dihydro-pyrido[2,3-d]pyrimidin-6-yl]-phenyl}-urea]
< 5	> 10	> 70	> 70	COn1c(=O)c(-c2cc(NC(=O)Cc3ccc(Cl)c(C(F)(F)F)c3)ccc2Cl)cc2cnc(NCCN(C)C)nc21 [Compound 16, N-{4-Chloro-3-[2-(2-dimethylamino-ethylamino)-8-methoxy-7-oxo-7,8-dihydro-pyrido[2,3-d]pyrimidin-6-yl]-phenyl)-2-(4-chloro-3-trifluoromethyl-phenyl)-acetamide]
< 5	> 10	> 70	> 70	COn1c(=O)c(-c2cc(NC(=O)c3cc(C(F)(F)F)ccc3F)ccc2Cl)cc2cnc(NCCN(C)C)nc21 [Compound 23, N-{4-Chloro-3-[2-(2-dimethylamino-ethylamino)-8-methoxy-7-oxo-7,8-dihydro-pyrido[2,3-d]pyrimidin-6-yl]-phenyl]-2-fl uoro-5-trifluoromethyl-benzamide]
< 5	> 10	> 70	> 70	COn1c(=O)c(-c2cc(NC(=O)c3cc(Cl)nc(NC(C)C)c3)ccc2Cl)cc2cnc(NCCN(C)C)nc21 [Compound 64, 2-Chloro-N-(4-chloro-3-(2-(2-(dimethylamino)ethylamino)-8-methoxy-7-oxo-7,8-dihydropyrido[2,3-d]pyrimidin-6-yl)phenyl)-6-isopropylamino-isonicotinamide]
< 5	> 10	–	–	COc1ccc(C(=O)Nc2ccc(Cl)c(-c3cc4cnc(NCCN(C)C)nc4n(OC)c3=O)c2)cc1Cl [Compound 21, 3-Chloro-N-{4-chloro-3-[2-(2-dimethylamino-ethylamino)-8-methoxy-7-oxo-7,8-dihydro-pyrido[2,3-d]pyrimidin-6-yl]-phenyl}-4-methoxy-benzamide]
< 5	> 10	–	–	COn1c(=O)c(-c2cc(NC(=O)c3cc(Cl)cc(Cl)c3)ccc2Cl)cc2cnc(NCCN(C)C)nc21 [Compound 22, 3,5-Dichloro-N-{4-chloro-3-[2-(2-dimethylamino-ethylamino)-8-methoxy-7-oxo-7,8-dihydro-pyrido[2,3-d]pyrimidin-6-yl]-phenyl}-benzamide]
< 5	< 10	–	–	COc1cc(C(F)(F)F)ccc1C(=O)Nc1ccc(-c2cc3cnc(NCCN(C)C)nc3n(OC)c2=O)c(Cl)c1 [Compound 51, N-{3-Chloro-4-[2-(2-dimethylamino-ethylamino)-8-methoxy-7-oxo-7,8-dihydro-pyrido[2,3-d]pyrimidin-6-yl]-phenyl}-2-methoxy-4-trifluoromethyl-benzamide]
< 10	< 10	–	–	COn1c(=O)c(-c2ccc(NC(=O)Cc3ccc(Cl)c(C(F)(F)F)c3)cc2Cl)cc2cnc(NCCN(C)C)nc21 [Compound 57, N-{3-Chloro-4-[2-(2-dimethylamino-ethylamino)-8-methoxy-7-oxo-7,8-dihydro-pyrido[2,3-d]pyrimidin-6-yl]-phenyl}-2-(4-chloro-3-trifluoromethyl-phenyl)-acetamide]
< 5	< 10	–	–	COn1c(=O)c(-c2cc(NC(=O)c3cc(Cl)nc(NCc4ccc(N5CCN(C)CC5)cc4)c3)ccc2Cl)cc2cnc(NCCN(C)C)nc21 [Compound 67, 2-Chloro-N-(4-chloro-3-(2-(2-(dimethylamino)ethylamino)-8-methoxy-7-oxo-7,8-dihydropyrido[2,3-d]pyrimidin-6-yl)phenyl)-6-(4-(4-methylpiperazin-1-yl)-benzylamino)-isonicotinamide]
> 10	> 10	–	–	COn1c(=O)c(-c2cc(NC(=O)c3ccccc3)ccc2Cl)cc2cnc(NCCN(C)C)nc21 [Compound 33, N-{4-Chloro-3-[2-(2-dimethylamino-ethylamino)-8-methoxy-7-oxo-7,8-dihydro-pyrido[2,3-d]pyrimidin-6-yl]-phenyl}-benzamide]
< 5	> 10	–	–	COn1c(=O)c(-c2cc(NC(=O)c3ccc(Cl)c(C(F)(F)F)c3)ccc2Cl)cc2cnc(NCCN(C)C)nc21 [Compound 3, 4-Chloro-N-{4-chloro-3-[2-(2-dimethylamino-ethylamino)-8-methoxy-7-oxo-7,8-dihydro-pyrido[2,3-d]pyrimidin-6-yl]-phenyl}-3-trifluoromethyl-benzamide]
> 10	> 10	–	–	COn1c(=O)c(-c2cc(NC(=O)c3ccc(C(F)(F)F)cc3F)ccc2Cl)cc2cnc(NCCN(C)C)nc21 [Compound 20]
< 5	> 10	–	–	COn1c(=O)c(-c2cc(NC(=O)Nc3cccc(C(F)(F)F)c3F)ccc2Cl)cc2cnc(NCCN(C)C)nc21 [Compound 48, 1-{4-Chloro-3-[2-(2-dimethylamino-ethylamino)8-methoxy-7-oxo-7,8-dihydro-pyrido[2,3-d]pyrimidin-6-yl]-phenyl}-3-(2-fluoro-3-trifluoromethyl-phenyl)-urea]
> 10	> 10	–	–	COn1c(=O)c(-c2ccc(NC(=O)c3ccc(CN4CCN(C)CC4)cc3)cc2Cl)cc2cnc(NCCN(C)C)nc21 [Compound 53, N-{3-Chloro-4-[2-(2-dimethylamino-ethylamino)-8-methoxy-7-oxo-7,8-dihydro-pyrido[2,3-d]pyrimidin-6-yl]-phenyl}-4-(4-methyl-piperazin-1-ylmethyl)-benzamide]
< 5	< 10	–	–	COn1c(=O)c(-c2ccc(NC(=O)c3ccc(OCc4cccc(F)c4)c(Cl)c3)cc2Cl)cc2cnc(NCCN(C)C)nc21 [Compound 55, 3-Chloro-N-{3-chloro-4-[2-(2-dimethylamino-ethylamino)-8-methoxy-7-oxo-7,8-dihydro-pyrido[2,3-d]pyrimidin-6-yl]-phenyl}-4-(3-fluoro-benzyloxy)-benzamide]
> 10	> 10	–	–	COn1c(=O)c(-c2ccc(NC(=O)c3ccnc(N4CCOCC4)c3)cc2Cl)cc2cnc(NCCN(C)C)nc21 [Compound 54, N-{3-Chloro-4-[2-(2-dimethylamino-ethylamino)-8-methoxy-7-oxo-7,8-dihydro-pyrido[2,3-d]pymidin-6-yl]-phenyl}-2-morpholin-4-yl-isonicotinamide]
< 10	> 10	–	–	COn1c(=O)c(-c2cc(NC(=O)c3cc(Cl)nc(NCCN(C)C)c3)ccc2Cl)cc2cnc(NCCN(C)C)nc21 [Compound 65, 2-Chloro-N-(4-chloro-3-(2-(2-(dimethylamino)ethylamino)-8-methoxy-7-oxo-7,8-dihydropyrido[2,3-d]pyrirnidin-6-yl)phenyl)-6-(2-dimethylaminoethylamino)-isonicotinamide]
< 10	> 10	–	–	COn1c(=O)c(-c2cc(NC(=O)c3cc(C(F)(F)F)ccc3Cl)ccc2Cl)cc2cnc(NCCN(C)C)nc21 [Compound 29, 2-Chloro-N-{4-chloro-3-[2-(2-dimethylamino-ethylamino)-8-methoxy-7-oxo-7,8-dihydro-pyrido[2,3,-d]pyrimidin-6-yl]-phenyl}-5-trifluoromethyl-benzamide]
